These results are taken from US20090238792A1, “SUPPRESSION OF POSTOPERATIVE ILEUS” (University of Pittsburgh of the Commonwealth System of …, priority 2007, published 2009).

For data set [1], the system named is MPO positive leukocytes in the intestinal muscularis. Kind of data set: Myeloperoxidase (MPO) histochemistry: leukocyte infiltration in muscularis whole-mounts. In kind it is in vivo, rat. As to conditions: for infiltrating MPO positive leukocytes: manipulated rats, 24 h postoperatively, SM vehicle 95±6.4. As to the method: (§1) Age matched animals treated with vehicle (normal saline) or valine (263.5 mg/kg, osmotic control) at appropriate time points and at equal volumes served as controls.
(§2) The rodent intestine was subjected to a standardized degree of surgical manipulation as described previously (14). Rats were anesthetized by isoflurane inhalation and the abdomen was opened by a midline laparotomy. The cecum was eventrated and laid out onto a moist gauze. Then, the intestine was inspected along its length and gently compressed using moist cotton applicators. The midline incision was closed by two layers of continuous sutures. All operative procedures were performed under sterile conditions with the intestine being handled only by instruments and never touched directly. Animals were killed at specific time points postoperatively by isoflurane anesthesia inhalation overdose and heart incision.
Histochemistry and Immunohistochemistry: Leukocyte infiltration was quantified on rat whole-mounts of the intestinal muscularis as described previously (N=6-8) (43). Myeloperoxidase (MPO) positive cells were detected using a mixture of 30 mg Hanker-Yates reagent, 30 ml KRB and […] 3% hydrogen peroxide for 10 minutes. Leukocytes were counted in 5 randomly chosen areas in each specimen (3 specimen per animal) at a magnification of 200×.
(§3) Methods: ACI-rats (180-220 g) underwent standardized surgical manipulation of the intestine. […] Age matched animals treated with vehicle or valine (osmotic control) at appropriate time points and at equal volumes served as controls. […] Postoperative mediator mRNA expression in the intestinal muscularis was determined by real-time RT PCR. Leukocyte extravasation was investigated in muscularis whole-mounts. Nitrite production was measured in muscularis cultures. In vivo transit of FITC-dextran was measured using geometric center analysis (GC). In vitro circular muscle contractility was assessed in a standard organ bath. Statistical analysis: unpaired Student t test, p<0.05, mean±SEM.

For data set [2] the following is noted: 170 mg/kg intravenously; cited from earlier work.
The test system of another data set is nitrite (nitric oxide). Kind of data set: Nitrite release (Griess reaction) from organ cultured muscularis. In kind it is in vivo, rat. As to the method: as §1, §2
Tissue culture and determination of nitrite and prostanoid release in supernatant: The rat small intestine and colon were processed for tissue culture at 24 hours as described previously, (N=5-8) (25). Briefly, the muscularis was isolated by stripping the muscularis from the mucosa and then cut into small pieces and washed twice in Hank's balanced salt solution (HBSS) with 100 U/ml penicillin G and 100 μg/ml streptomycin. Aliquots of muscularis ([…]) were incubated (37° C., 5% CO2) in 6-well tissue culture plates containing 3 ml of supplemented Dulbecco's modified Eagle medium (DMEM)-F12 with 100 U/ml penicillin G and 100 μg/ml streptomycin. After an incubation period of 24 hours, 500 μl aliquots of supernatant were collected, frozen in liquid nitrogen and stored at −80° C. The muscle tissue was blotted dry, and the weight was estimated. To estimate the generation of NO from the intestinal muscularis, nitrite production was measured by the Griess reaction (44). Supernatant from the tissue culture was mixed with equal amount of Griess reagent (0.1% N-(1-naphtyl)ethyl-enediamine dihydrochloride and 1% sulfanilamide in 6% phosphoric acid; 1:1) and incubated at room temperature for 10 minutes. The absorbance at 550 nm was measured with a microplate reader and compared with standard prepared from serial dilutions of sodium nitrite. Each standard and supernatant sample was analyzed in duplicate, and the mean value of nitrite production was normalized to the tissue weight.
as §3
(In general: Griess reagent forms a coloured azo dye with nitrite.)

The test system of data set [3] is C57Bl/6 mice with surgical manipulation (SM). The conditions noted are these: SM+glycine 170 mg/kg, control=11.0±0.44, SM=4.1±0.18, SM+saline=4.1±0.5. As to the method:
as §1

Data set [4] concerns interleukins and chemokines. An excerpt:
Luminex Multiplex Bead Immunoassays: The release of […] inflammatory analytes into the mouse tissue culture supernatant, obtained as above, was quantified with a Luminex 100™ using microsphere-based multiplexing technology. The mouse cytokine twenty plex immune kit was comprised of analyte specific components for the simultaneous measurement of the following mouse cytokines (FGF-basic, IL-1α, IL-1β, IL-2, IL-4, IL-5, IL-6, IL-10, IL-12p70, IL-13, IL-17, TNF-α, IFN-γ, GM-CSF, KC, MCP-1, MIG, MIP-1α, IP-10 and VEGF) (Invitrogen, Carlsbad, Calif.).

For another data set, the system named is COX-2 mRNA. The conditions noted are these: glycine 170 mg/kg, 3 hours postoperatively; SM 3.2-fold; not significant. As to the method: as §1
The rodent intestine was subjected to a standardized degree of surgical manipulation as described previously (14). Rats were anesthetized by isoflurane inhalation and the abdomen was opened by a midline laparotomy. The cecum was eventrated and laid out onto a moist gauze. Then, the intestine was inspected along its length and gently compressed using moist cotton applicators. The midline incision was closed by two layers of continuous sutures. All operative procedures were performed under sterile conditions with the intestine being handled only by instruments and never touched directly. […]
mRNA Expression Analysis: Postoperative mediator mRNA expressions in the small intestinal muscularis were analyzed using SYBR Green two-step real-time RT-PCR as previously described, (N=4-6). […] Equal aliquots (200 ng) of total RNA from each sample, quantified by spectrophotometer, were processed for complimentary DNA (cDNA) synthesis. […] The efficiency and equality of the real-time PCR primer pairs were determined by amplifying serial dilutions of muscularis cDNA. […] Relative quantification was performed using the comparative CT method as described by Schmittgen et al. (42).

Molecules are shown by their SMILES.

On to `NCC(=O)O` [glycine], for which the “reduction of infiltrating leukocytes compared to manipulated vehicle pretreated rats” value in data set [1] (glycine 85 mg/kg) was determined as 18%; in data set [1] (glycine 170 mg/kg), 27%. The results for the “infiltrating MPO positive leukocytes” value in data set [1] (85 mg/kg glycine) and in data set [1] (glycine 170 mg/kg or valine (263.5 mg/kg)) were 78±5.1 cells/field at 200× and 69±5.7 cells/field at 200×, respectively. The MPO positive cells in data set [1] (rats without intestinal manipulation, glycine injected, vehicle 2±0.9) was 2±0.5 cells/field at 200× magnification. Also, in data set [2], the “increase of glycine serum levels” value is “about sevenfold”. The “attenuation of postoperative increase in nitrite production” value in the data set with nitrite (nitric oxide) (Example 5, muscularis cultures, glycine (170 mg) i.v. 1 hour prior to surgery) was 39%. For the same compound, the “nitrite release, fold increase over control, colon” value in the data set with nitrite (nitric oxide) (manipulated rats, colonic muscularis 24 h organ culture, glycine 170 mg/kg or valine, SM vehicle 10.9-fold) came out at 2.5 fold. In addition, the “nitrite release, fold increase over control, jejunum” value in the data set on nitrite (nitric oxide) (manipulated rats, jejunal muscularis 24 h organ culture, glycine 170 mg/kg or valine, SM vehicle 11.4-fold) worked out at 2.7 fold. In addition, the “Griess reaction measurements from the unmanipulated muscularis” value in the data set on nitrite (nitric oxide) (unmanipulated, glycine 170 mg/kg) was “no significant effects”. Moreover, the “geometric center of gastrointestinal transit” value in data set [3] worked out at 10.3±7. In addition, in data set [4] (manipulated colonic muscularis, significance reached by IL-5, IL-6, IL-10, IL-12, KC, MCP-1, MIP1-α and GM-CSF), the “interleukins and chemokines released into organ culture media, colonic muscularis externa” value is recorded as “tended to be quelled”. Moreover, the “interleukins and chemokines released into organ culture media, jejunal muscularis externa” value in data set [4] (manipulated jejunal muscularis, significance reached by IL-6, IP-10 and MIP1-α) was “tended to be quelled”. For the same compound, in data set [4] (organ cultured muscularis of jejunum and colon, more dramatic in colon), the “production of chemokines (IP-10, KC, MCP-1, MIP-1α, VEGF and GM-CSF)” value is “trend for the inhibition”. The “release of interleukins 5, 6, 10 and 12” value in data set [4] (organ cultured muscularis of jejunum and colon, more pronounced in colon) was “decrease”. For the same compound, the “COX-2 mRNA postoperative upregulation” value in the data set on COX-2 mRNA was determined as 2.3 fold.
